Test results: paper PMC6437269, “OXA-48-Mediated Ceftazidime-Avibactam Resistance Is Associated with Evolutionary Trade-Offs” (mSphere, 2019)

Tests used:
[1] = biological target: T1, OXA-48 (Klebsiella pneumoniae, UniProt Q6XEC0); test: biochemical; settings: nitrocefin reporter substrate; enzyme and inhibitor incubated 5 min; error = 95% CI
T1 construct: made in house

[2] = biological target: OXA-48:P68A (Klebsiella pneumoniae, UniProt Q6XEC0, P68A); test: IC50 with nitrocefin as reporter substrate, OXA-48:P68A; format: biochemical
Sequence of OXA-48:P68A (Q6XEC0 23-265 P68A): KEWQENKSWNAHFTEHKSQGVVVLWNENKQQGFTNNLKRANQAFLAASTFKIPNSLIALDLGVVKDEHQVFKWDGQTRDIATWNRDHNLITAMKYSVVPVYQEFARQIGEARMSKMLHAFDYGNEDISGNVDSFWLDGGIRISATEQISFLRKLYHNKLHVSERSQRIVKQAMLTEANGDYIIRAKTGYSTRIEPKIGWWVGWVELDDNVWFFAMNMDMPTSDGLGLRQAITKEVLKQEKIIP

T1 sequence (Q6XEC0 23-265 limits assumed): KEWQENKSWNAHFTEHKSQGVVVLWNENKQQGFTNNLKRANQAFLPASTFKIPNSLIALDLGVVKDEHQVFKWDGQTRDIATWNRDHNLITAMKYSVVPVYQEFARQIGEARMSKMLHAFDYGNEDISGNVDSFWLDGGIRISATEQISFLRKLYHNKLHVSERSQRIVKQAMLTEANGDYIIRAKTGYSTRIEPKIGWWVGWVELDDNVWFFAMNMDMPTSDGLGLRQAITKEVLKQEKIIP

Compound: C[C@]1(Cn2ccnn2)[C@H](C(=O)O)N2C(=O)C[C@H]2S1(=O)=O [Tazobactam, tazobactam]
- IC50 [1]: 95 ± 9 µM
- reduction in the IC50 ([2]; P68A compared to native OXA-48, 5 min): > 20 fold
- IC50 ([2]; nitrocefin reporter substrate, enzyme and inhibitor incubated 5 min, error = 95% CI): 4 ± 1 µM
